# Data as given in ChEMBL document CHEMBL1131718, “Syntheses of (+/-)-shinflavanone and its structural analogues as potent inhibitors of bone resorption pits formation” (Bioorg Med Chem Lett, 1999).
# Tests used:
# Type in all cases: functional
# [1] = Ability to inhibit the resorption pits formation by osteoclast-like cell(OCL) induced by 1-alpha,25-dihydroxy vitamin D3 at conc. 10.00 ug/ml.
# [2] = Ability to inhibit the resorption pits formation by osteoclast-like cell(OCL) induced by 1-alpha,25-dihydroxy vitamin D3 at conc. 1.11 ug/ml.
# [3] = Ability to inhibit the resorption pits formation by osteoclast-like cell(OCL) induced by 1-alpha,25-dihydroxy vitamin D3.
# [4] = Bone resorption pits formation by osteoclast-like cell(OCL) induced by 1-alpha,25-dihydroxy vitamin D3 at 1.11 ug/ml concentration
# [5] = Cytotoxicity of compound was measured on osteoclastic cells.
# [6] = Bone resorption pits formation by osteoclast-like cell(OCL) induced by 1-alpha,25-dihydroxy vitamin D3 at 10 ug/ml concentration
# [7] = Bone resorption pits formation by osteoclast-like cell(OCL) induced by 1-alpha,25-dihydroxy vitamin D3 at 3.33 ug/ml concentration
# [8] = Ability to inhibit the resorption pits formation by osteoclast-like cell(OCL) induced by 1-alpha,25-dihydroxy vitamin D3 at conc. 3.33 ug/ml.
# [9] = Ability to inhibit the resorption pits formation by osteoclast-like cell(OCL) induced by 1-alpha,25-dihydroxy vitamin D3 at conc. 0.37 ug/ml.
# [10] = Bone resorption pits formation by osteoclast-like cell(OCL) induced by 1-alpha,25-dihydroxy vitamin D3 at 0.37 ug/ml concentration
IC50 [3],SMILES,inhibition at 10 µg/mL [1],inhibition at 1.11 µg/mL [2],No. of pits [4],CC50 [5],No. of pits [6],No. of pits [7],inhibition at 3.33 µg/mL [8],inhibition at 0.37 µg/mL [9],No. of pits [10]
5.7 µg/mL,CC(C)=CCc1cc(C2CC(=O)c3cc(CC=C(C)C)c(O)cc3O2)ccc1O (centres undefined),84.2%,41.2%,87,18.2 µg/mL,23,84,41.3%,21.7%,112
0.7 µg/mL,CC(C)=CCc1cc(C2CC(=O)c3ccc4c(c3O2)C=CC(C)(C)O4)ccc1O (centres undefined),78.1%,54.1%,68,16.8 µg/mL,32,54,62.2%,48.3%,74
10.9 µg/mL,CC(C)=CCc1cc(C2CC(=O)c3cc(CC=C(C)C)c(O)c(CC=C(C)C)c3O2)ccc1O (centres undefined),45.2%,18.9%,120,10.4 µg/mL,80,108,24.4%,< 5%,150

SMILES,IC50 [3],inhibition at 10 µg/mL [1],inhibition at 1.11 µg/mL [2],No. of pits [4],CC50 [5],No. of pits [6],No. of pits [7],inhibition at 3.33 µg/mL [8],inhibition at 0.37 µg/mL [9],No. of pits [10]
CO[C@H]1[C@@H](OC)C[C@H](C)[C@@H](OC)C2=CC(=O)C=C(NC(=O)/C(C)=C/C=C/[C@H](OC)[C@@H](OC(N)=O)/C(C)=C/[C@@H]1C)C2=O [HERBIMYCIN],1.1 µg/mL,,50.7%,,1.72 µg/mL,,,,37.8%,
